Patent US11911353B2, “Fatty acid synthase inhibitor and application thereof” (Jiangnan University, priority 2019, dated 2024)

How the values were obtained:
Assay type in all cases: cell-based
[1] = biological target: T1, fatty acid synthase (FASN) in colon cancer cells HCT116 (Homo sapiens, UniProt P49327); experiment: FASN enzyme activity detection in treated HCT116 cells (NADPH absorbance at 340 nm); details: for inhibition at 20 µM: HCT-116, 4 hours of incubation, read-out: FASN enzyme activity inhibition rate (%)
T1 construct: endogenous in cells; host or cells: HCT116 colon cancer cells
T1 sequence (P49327 whole entry): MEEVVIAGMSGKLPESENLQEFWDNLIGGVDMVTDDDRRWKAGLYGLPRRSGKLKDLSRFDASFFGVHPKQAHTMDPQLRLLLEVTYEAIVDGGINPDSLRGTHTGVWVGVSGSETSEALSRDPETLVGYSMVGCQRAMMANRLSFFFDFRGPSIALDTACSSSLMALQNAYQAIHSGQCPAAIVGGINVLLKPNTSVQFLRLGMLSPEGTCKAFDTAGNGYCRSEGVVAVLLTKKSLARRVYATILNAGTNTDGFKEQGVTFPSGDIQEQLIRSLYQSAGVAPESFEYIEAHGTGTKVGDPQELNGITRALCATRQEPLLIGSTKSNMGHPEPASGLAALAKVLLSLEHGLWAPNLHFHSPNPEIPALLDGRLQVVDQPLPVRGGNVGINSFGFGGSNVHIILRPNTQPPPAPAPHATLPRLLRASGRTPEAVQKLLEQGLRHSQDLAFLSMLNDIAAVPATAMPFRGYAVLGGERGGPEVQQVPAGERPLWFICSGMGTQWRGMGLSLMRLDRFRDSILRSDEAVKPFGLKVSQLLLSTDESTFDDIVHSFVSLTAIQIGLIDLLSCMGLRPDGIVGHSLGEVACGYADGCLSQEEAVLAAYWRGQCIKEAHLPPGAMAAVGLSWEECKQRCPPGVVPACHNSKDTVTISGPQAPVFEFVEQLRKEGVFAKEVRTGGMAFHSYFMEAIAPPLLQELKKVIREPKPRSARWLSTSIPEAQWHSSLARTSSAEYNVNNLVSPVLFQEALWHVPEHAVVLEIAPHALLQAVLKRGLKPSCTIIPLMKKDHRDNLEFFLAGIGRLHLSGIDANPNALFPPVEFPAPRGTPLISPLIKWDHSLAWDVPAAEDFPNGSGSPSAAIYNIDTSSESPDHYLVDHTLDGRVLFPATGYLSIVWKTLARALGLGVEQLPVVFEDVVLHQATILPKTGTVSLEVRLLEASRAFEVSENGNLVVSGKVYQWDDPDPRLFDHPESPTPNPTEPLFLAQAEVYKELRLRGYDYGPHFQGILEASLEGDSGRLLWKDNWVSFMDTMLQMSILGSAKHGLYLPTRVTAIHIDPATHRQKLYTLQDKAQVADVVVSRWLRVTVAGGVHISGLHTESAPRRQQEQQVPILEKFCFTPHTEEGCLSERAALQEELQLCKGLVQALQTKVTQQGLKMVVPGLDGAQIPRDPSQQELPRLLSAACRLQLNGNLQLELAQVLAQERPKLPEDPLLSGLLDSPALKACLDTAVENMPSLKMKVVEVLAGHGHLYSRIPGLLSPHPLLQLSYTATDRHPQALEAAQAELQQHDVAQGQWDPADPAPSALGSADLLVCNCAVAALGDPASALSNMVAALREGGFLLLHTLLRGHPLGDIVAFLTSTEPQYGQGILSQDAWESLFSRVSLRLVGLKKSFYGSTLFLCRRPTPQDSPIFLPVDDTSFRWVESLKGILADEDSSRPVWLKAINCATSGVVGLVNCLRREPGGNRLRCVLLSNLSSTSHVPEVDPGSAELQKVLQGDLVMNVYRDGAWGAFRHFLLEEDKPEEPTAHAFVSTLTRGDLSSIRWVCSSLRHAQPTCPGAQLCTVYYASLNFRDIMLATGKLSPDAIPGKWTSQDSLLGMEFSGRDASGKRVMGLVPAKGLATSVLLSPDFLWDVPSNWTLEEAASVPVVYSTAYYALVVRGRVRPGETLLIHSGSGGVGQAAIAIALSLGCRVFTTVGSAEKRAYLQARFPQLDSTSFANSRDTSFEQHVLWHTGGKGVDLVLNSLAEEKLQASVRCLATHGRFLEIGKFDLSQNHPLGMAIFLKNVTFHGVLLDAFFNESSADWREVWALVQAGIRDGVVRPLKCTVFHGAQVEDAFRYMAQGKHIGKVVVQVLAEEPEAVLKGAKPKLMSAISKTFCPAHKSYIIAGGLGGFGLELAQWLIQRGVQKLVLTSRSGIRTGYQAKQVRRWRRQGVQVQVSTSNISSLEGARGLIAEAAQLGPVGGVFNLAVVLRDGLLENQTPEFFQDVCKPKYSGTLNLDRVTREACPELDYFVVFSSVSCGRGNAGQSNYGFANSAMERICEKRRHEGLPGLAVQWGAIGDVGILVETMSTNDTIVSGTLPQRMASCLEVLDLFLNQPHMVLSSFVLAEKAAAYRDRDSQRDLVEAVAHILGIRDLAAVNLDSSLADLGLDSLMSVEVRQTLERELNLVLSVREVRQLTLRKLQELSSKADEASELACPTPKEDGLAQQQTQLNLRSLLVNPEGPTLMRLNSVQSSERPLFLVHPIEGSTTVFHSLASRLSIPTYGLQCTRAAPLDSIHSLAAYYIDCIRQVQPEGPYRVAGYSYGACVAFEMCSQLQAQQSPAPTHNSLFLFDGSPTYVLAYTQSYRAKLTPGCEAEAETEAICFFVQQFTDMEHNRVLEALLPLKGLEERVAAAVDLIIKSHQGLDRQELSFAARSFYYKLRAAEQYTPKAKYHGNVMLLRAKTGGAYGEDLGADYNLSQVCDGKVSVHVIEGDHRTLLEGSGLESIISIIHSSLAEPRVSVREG

[2] = tested on: prostate cancer cells PC-3; experiment: MTT tumor proliferation IC50, PC-3; details: 72 hours of incubation
From the text: (§1) IC50 (half maximal inhibitory concentration) refers to the half inhibitory concentration of a measured antagonist. It can indicate that a certain concentration of a certain drug or substance (inhibitor) induces tumor cell apoptosis by 50%, and this concentration is referred to as 50% inhibitory concentration, namely, the corresponding concentration when the ratio of apoptotic cells to the total number of cells is equal to 50%. The IC50 value can be used to measure the ability of a drug to induce apoptosis, that is, the higher the inducing ability, the lower the value, which also can indicate the tolerance degree of a certain cell to a drug on the contrary. • (1) Cells in the logarithmic phase are collected, the concentration of a cell suspension is adjusted, it is appropriate to place 100 μl cells in each well of a 96-well plate, the cells are inoculated into the plate to adjust the density of to-be-detected cells to be 1000-10000 cells/well, and edge wells are filled with sterile PBS. • (2) The cells are incubated under 5% CO2 at 37° C., an original culture medium is discarded after complete cell adherence, 200 μl of 1 wt % FBS culture medium containing 0.01 μM, 0.1 μM, 1 μM, 5 μM and 10 μM compound I-1 or cerulenin is added into each well, and there are 6 wells run in duplicate. An equal volume of DMSO is added as a negative control. • (3) After 72 hours of incubation, the cells are photographed for state recording, an original culture medium is discarded, and 100 μl of serum-free culture medium containing 0.5 mg/ml MTT (3-(4,5-dimethylthiazole-2)-2,5-diphenyltetrazolium bromide, trade name thiazolyl blue) is added into each well. • (4) After 2-4 hours of incubation, an original culture medium is discarded, and 150 μl of dimethyl sulfoxide (DMSO) is added into each well and shaken at 300 rpm for 10 minutes to fully dissolve purple crystals. • (5) The absorbance of each well at OD570 nm is measured by an enzyme-linked immunodetection instrument, the absorbance at OD630 nm is used as a reference, dual-wavelength measurement is carried out, and survival rate results are calculated according to the following formula: Cell survival rate=(OD570−OD630)/(OD570 negative control−OD630 negative control);
(§2) wherein, OD570: OD570 value of each treatment group; OD630: OD630 value of each treatment group; OD570 control: OD570 value of the negative control group; OD630 control: OD630 value of the negative control group. • (6) The survival rate results are processed with graphpad 6.0 software according to the concentration gradient, the analysis mode is log (inhibitor) vs. Nonlinear regression (curve fit), and the calculated IC50 value is expressed as x+/−SD.
(§3) The FASN enzyme activity measurement method shown in Experimental Example 18 is used to detect the effects of different substances on FASN enzyme activity. The method shown in Experimental Example 19 is used to detect the effects of different substances on the proliferation of tumor cells, cerulenin is used as a control, and the inhibition rates (%) of different substances on FASN enzyme activity and inhibition rates (IC50 nM) on tumor proliferation are calculated.

[3] = tested on: colon cancer cells HCT116; experiment: MTT tumor proliferation IC50, HCT116
From the text: as §1, §2, §3

[4] = tested on: tumor cells 22RV1, PC-3, HT-29, Hela, Hep G2, CaCo-2 and HCT116; experiment: MTT proliferation of various tumor cells at single concentration (FIG. 2); details: 10 μM, 72 hours, 7 different tumor cells
From the text: Cell survival rate=(OD570−OD630)/(OD570 negative control−OD630 negative control); wherein, OD570: OD570 value of each treatment group; OD630: OD630 value of each treatment group; OD570 control: OD570 value of the negative control group; OD630 control: OD630 value of the negative control group.

[5] = Homo sapiens, HCT-116, 72 hours of incubation

| Compound | inhibition at 20 µM [1] [%] | IC50 [2] [nM] | IC50 [3, 5] [nM] | FASN enzyme activity inhibition rate (%) ([1]; 20 μM, 4 hours of incubation) | IC50 ([3]; 72 hours of incubation) [nM] | effect on proliferation of tumor cells [4] |
| --- | --- | --- | --- | --- | --- | --- |
| CCOC(=O)CCCC(=O)Nc1ccc(Br)cc1 [Intermediate 2, Ethyl 5-(4-bromophenylamino)-5-oxopentanoate] | 22.2 | 18 ± 2.5 | 22 ± 3.1 | – | – | – |
| C/C=C/C/C=C/CCC(=O)[C@H]1O[C@H]1C(N)=O [Cerulenin, cerulenin, reference compound] | 21.3 | 18 ± 2.7 | 29 ± 3.2 | – | – | no significant effect on the proliferation of some tumor cells |
| C=C1C(=O)OC(CCCCCCCC)C1C(=O)O (centres unmarked) [Compound C75, C75] | – | – | – | – | – | no significant effect on the proliferation of some tumor cells |
| 5-(4-bromophenylamino)-5-oxopentanoic acid [Intermediate 1] | – | 15 ± 1.3 | – | 31.87 | 19 ± 2.1 | – |

The next lines start with results.

| inhibition at 20 µM [1] [%] | IC50 [2] [nM] | IC50 [3, 5] [nM] | FASN enzyme activity inhibition rate (%) ([1]; 20 μM, 4 hours of incubation) | IC50 ([3]; 72 hours of incubation) [nM] | Compound | effect on proliferation of tumor cells [4] |
| --- | --- | --- | --- | --- | --- | --- |
| 41.2 | 14 ± 2.8 | 15 ± 2.5 | – | – | O=C(CCCNC(=O)NCc1cc(Br)ccc1O)Nc1ccc(Br)cc1 [Compound I-3] | – |
| 30.7 | 16 ± 2.9 | 21 ± 1.6 | – | – | COc1ccc(Br)cc1CNC(=O)NCCCC(=O)Nc1ccc(Br)cc1 [Compound I-2] | – |
| 37.7 | 15 ± 2.1 | 19 ± 1.9 | – | – | O=C(CCC(=O)Nc1ccccc1)NC(=O)c1ccccc1 [Compound I-7] | – |
| 35.2 | 16 ± 1.7 | 20 ± 3.5 | – | – | O=C(CCC(=O)Nc1ccccc1)/N=C/Cc1ccccc1 [Compound I-8] | – |
| 49 | 11 ± 1.8 | 14 ± 1.7 | – | – | O=C(CCCC(=O)Nc1ccc(Br)cc1)NNC(=O)c1cc(Br)ccc1O [Compound I-4] | – |
| 41.9 | 15 ± 1.8 | 17 ± 2.7 | – | – | O=C(CCC(=O)Nc1ccccc1)/N=C/c1ccccc1 [Compound I-6] | – |
